Experiments:
[1] = target: Carbonic anhydrase 2 (Homo sapiens, UniProt P00918); assay: Inhibition of human carbonic anhydrase 2 using 4-nitrophenylacetate as substrate after 3 mins by spectrophotometric analysis
[2] = target: Carbonic anhydrase 1 (Homo sapiens, UniProt P00915); assay: Inhibition of human carbonic anhydrase 1 using 4-nitrophenylacetate as substrate after 3 mins by spectrophotometric analysis
Chain of Carbonic anhydrase 1 (P00915 whole entry): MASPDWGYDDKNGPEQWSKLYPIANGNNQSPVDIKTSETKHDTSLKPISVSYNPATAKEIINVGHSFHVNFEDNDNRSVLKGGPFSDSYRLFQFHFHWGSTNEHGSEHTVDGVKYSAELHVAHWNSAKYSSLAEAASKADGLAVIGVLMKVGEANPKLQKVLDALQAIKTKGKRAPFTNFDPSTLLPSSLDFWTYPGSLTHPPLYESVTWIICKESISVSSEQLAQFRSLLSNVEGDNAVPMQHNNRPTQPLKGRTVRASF

| Ki [1] | Ki [2] | Compound |
| --- | --- | --- |
| 0.17 µM | 42.6 µM | c1ccc2c(c1)c1c(n2Cc2ccc(Cn3c4c(c5ccccc53)CCC4)cc2)CCC1 |
| 0.25 µM | 39.3 µM | c1ccc2c(c1)c1c(n2Cc2ccc(Cn3c4c(c5ccccc53)CCCC4)cc2)CCCC1 |
| 0.29 µM | 41.7 µM | c1ccc2c(c1)c1c(n2Cc2ccc(Cn3c4c(c5ccccc53)CCCCC4)cc2)CCCCC1 |
